The values that follow come from ChEMBL document CHEMBL1201862, “PubChem BioAssay data set” (2004).

Experiment [1] concerns the target Potassium voltage-gated channel subfamily KQT member 2 (Rattus norvegicus, UniProt O88943). Description: KCNQ2 potassium channel inhibitors, dose response, cell-based, automated electrophysiology, set II, rat KCNQ2 (AID 588637). The format is functional.
Experiment [2] deals with DNA repair and recombination protein RAD54-like (Homo sapiens, UniProt Q92698). Description: inhibitors of human RAD54 branch migration, confirmation, biochemical, fluorescence, cherry-picked samples, dose series (AID 651657). The class given is functional.
DNA repair and recombination protein RAD54-like, sequence (Q92698 whole entry): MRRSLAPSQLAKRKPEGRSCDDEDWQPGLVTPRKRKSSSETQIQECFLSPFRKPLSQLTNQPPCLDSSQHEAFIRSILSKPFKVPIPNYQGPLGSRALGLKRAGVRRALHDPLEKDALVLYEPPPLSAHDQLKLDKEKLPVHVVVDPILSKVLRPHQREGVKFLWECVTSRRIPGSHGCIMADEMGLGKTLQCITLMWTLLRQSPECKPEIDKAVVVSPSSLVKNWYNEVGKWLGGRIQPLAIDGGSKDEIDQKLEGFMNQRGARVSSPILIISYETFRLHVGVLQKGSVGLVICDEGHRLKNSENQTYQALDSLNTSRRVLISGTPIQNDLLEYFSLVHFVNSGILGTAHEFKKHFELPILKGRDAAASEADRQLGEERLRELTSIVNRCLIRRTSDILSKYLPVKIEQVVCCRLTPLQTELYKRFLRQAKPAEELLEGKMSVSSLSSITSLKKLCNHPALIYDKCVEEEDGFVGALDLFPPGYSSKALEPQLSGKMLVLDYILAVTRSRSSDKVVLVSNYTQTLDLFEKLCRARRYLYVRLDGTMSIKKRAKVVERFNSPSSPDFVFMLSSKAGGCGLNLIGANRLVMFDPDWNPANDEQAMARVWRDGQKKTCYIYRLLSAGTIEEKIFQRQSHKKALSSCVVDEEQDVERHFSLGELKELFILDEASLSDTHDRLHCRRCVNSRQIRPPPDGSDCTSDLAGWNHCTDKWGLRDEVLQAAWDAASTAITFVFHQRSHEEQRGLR
Experiment [3] addresses T1, RNA-binding protein pos-1 (Caenorhabditis elegans, UniProt G5EF15).
T1 sequence (G5EF15 whole entry): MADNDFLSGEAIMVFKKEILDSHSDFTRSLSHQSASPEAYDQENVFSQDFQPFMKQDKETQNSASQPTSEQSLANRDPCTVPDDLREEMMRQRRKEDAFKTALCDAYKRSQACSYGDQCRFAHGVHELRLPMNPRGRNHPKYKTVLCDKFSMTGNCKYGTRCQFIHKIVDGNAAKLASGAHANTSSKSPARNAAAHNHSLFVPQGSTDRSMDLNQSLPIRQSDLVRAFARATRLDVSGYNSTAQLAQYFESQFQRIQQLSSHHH
Description: inhibitors of POS-1/mex-3 RNA binding, dose response, biochemical, fluorescence polarization (AID 1964).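 Also: purified POS-1 fused to maltose binding protein made in E. coli; potency of compounds blocking POS-1 binding to fluorescent RNA.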 For orientation: In fluorescence polarisation assays a small probe gives low polarisation when free and higher when bound to something large.

Experiment [4] deals with T2, Zinc finger protein mex-5 (Caenorhabditis elegans, UniProt Q9XUB2).
T2 sequence (Q9XUB2 whole entry): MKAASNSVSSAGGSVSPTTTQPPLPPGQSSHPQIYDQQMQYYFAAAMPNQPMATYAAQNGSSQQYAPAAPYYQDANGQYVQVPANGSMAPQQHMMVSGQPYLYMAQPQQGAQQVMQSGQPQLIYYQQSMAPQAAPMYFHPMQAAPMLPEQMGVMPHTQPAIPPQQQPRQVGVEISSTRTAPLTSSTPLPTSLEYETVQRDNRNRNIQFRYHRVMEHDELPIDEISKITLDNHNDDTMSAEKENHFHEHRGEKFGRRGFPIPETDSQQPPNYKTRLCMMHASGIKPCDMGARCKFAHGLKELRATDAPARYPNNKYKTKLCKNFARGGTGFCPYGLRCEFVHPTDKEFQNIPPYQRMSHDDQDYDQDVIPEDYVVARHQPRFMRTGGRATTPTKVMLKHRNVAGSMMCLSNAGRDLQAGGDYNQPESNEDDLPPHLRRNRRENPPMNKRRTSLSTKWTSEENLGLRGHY
Briefly: MEX-5/TCR-2 RNA interaction inhibitors, dose response, biochemical, C. elegans, fluorescence polarization (AID 1960).

Another experiment concerns the target Genome polyprotein (dengue virus type 2, UniProt P29990). Briefly: Dengue-2 NS5 methyltransferase inhibitors, primary screen, biochemical, confirmation dose response (AID 588689). The class given is functional.
In experiment [5] the target is T3, Carboxy-terminal domain RNA polymerase II polypeptide A small phosphatase 1 (Homo sapiens, UniProt Q9GZU7).
T3 sequence (Q9GZU7 whole entry): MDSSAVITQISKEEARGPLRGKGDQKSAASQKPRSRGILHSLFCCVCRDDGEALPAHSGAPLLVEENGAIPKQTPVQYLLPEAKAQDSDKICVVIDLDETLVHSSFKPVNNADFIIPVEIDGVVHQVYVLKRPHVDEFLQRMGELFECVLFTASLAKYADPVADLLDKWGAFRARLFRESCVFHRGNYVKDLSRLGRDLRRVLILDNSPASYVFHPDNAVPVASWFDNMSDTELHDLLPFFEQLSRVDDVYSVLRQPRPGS
Briefly: inhibitors of CTDSP1, concentration-response testing, biochemical assay, absorbance-based, actives from ultra-high-throughput screening (AID 540297). The format is functional.

Experiment [6] deals with DNA (cytosine-5)-methyltransferase 1 (Homo sapiens, UniProt P26358). Description: DNMT1 methyltransferase inhibitors, confirmation, biochemical, fluorescent molecular beacon (AID 602386). The format is functional.
The target of experiment [7] is Histone-lysine N-methyltransferase NSD2 (Homo sapiens, UniProt O96028). The format is biochemical.
Histone-lysine N-methyltransferase NSD2, sequence (O96028 whole entry): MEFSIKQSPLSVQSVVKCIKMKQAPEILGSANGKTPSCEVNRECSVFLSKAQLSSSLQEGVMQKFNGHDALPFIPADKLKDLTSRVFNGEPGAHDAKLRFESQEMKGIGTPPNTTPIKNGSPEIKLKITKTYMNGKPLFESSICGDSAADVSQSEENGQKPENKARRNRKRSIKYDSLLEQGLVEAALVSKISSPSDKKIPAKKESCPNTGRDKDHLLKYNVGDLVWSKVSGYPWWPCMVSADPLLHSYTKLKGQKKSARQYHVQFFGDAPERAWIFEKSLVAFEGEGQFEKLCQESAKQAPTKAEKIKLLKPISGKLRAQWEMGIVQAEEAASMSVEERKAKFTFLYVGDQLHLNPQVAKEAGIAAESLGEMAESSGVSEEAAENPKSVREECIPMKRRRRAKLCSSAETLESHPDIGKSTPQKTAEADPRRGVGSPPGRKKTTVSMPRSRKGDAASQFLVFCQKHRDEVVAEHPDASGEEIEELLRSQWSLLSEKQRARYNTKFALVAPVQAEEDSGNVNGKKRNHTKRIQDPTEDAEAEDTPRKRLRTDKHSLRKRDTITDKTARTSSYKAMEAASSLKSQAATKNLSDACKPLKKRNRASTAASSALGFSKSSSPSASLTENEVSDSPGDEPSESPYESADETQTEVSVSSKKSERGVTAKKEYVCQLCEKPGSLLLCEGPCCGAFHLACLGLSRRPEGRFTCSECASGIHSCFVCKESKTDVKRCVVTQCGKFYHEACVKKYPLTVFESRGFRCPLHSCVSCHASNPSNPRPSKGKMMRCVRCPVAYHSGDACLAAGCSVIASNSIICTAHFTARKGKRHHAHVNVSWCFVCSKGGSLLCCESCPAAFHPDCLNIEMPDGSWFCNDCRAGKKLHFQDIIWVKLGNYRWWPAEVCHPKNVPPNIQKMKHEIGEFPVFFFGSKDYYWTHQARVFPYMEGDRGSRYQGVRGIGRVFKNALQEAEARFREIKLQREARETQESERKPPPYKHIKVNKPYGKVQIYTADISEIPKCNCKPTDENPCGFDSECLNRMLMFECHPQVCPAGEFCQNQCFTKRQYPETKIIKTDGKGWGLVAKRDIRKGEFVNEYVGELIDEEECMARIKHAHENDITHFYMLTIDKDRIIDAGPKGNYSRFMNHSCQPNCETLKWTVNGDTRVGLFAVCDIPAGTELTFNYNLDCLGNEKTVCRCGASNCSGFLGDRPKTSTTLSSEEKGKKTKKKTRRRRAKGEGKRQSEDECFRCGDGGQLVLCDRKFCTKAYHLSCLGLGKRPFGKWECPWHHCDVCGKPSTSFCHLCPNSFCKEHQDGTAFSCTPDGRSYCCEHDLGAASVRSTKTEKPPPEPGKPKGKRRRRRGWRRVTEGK
A short description of experiment [8]: Luminescence Cell-Based Dose Confirmation HTS to Identify Activators of 5'UTR Stem-Loop Driven Alpha-Synuclein mRNA Translation in H4 Neuroglioblastoma Cells. [Related pubchem assays: 1829 (Project Summary), 1814 (Primary HTS)]. The format is functional.
A short description of experiment [9]: Luminescence Cell-Based Dose Response HTS to Identify Activators of Luciferase Translation or Activity in H4 […] Cells. [Related pubchem assays: 1829 (Project Summary), 1814 (Primary HTS)]. The class given is functional.
A further experiment has as its system H4. Description: Luminescence Cell-Based Dose Response HTS to Identify Activators of 5'UTR Stem-Loop Driven Prion Protein mRNA Translation in H4 Neuroglioblastoma Cells. [Related pubchem assays: 1829 (Project Summary), 1814 (Primary HTS)]. As to conditions: Homo sapiens. The class given is functional.
Experiment [10] in a line: Vero cell cytotoxicity, cytotoxicity control for M. tuberculosis inhibitor project, purified and synthesized samples, set 3 (AID 504684). The class given is functional. As to conditions: […].
The nature of experiment [11]: Shn3 3'UTR reporter inhibitors, dose response, cell-based, Clone20 osteoblasts, firefly luciferase, cherry-picked (AID 624132).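 Also: firefly luciferase luminescence from reporter carrying the Shn3 3'UTR in osteoblasts.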 The format is functional.
Experiment [12] is described as follows: HepG2 cell cytotoxicity, dose response, cytotoxicity control for Shn3 inhibitor project, CellTiter-Glo, cherry-picked (AID 624134). The class given is functional, cell-based. (Cellular ATP, detected with luciferase, serves as a proxy for viable cell number.)
Experiment [13] is described as follows: control 3'UTR Renilla luciferase suppression, dose response, counter-screen for Shn3 inhibitor project, cell-based, Clone20-Shn3RL, cherry-picked (AID 624133). The class given is functional. A general note: A counterscreen serves to expose hits that act by an unwanted route or on another target.
A further experiment addresses Protein Wnt-3a (Mus musculus, UniProt P27467). Description: Wnt3a-driven reporter signaling inhibition, dose response, selectivity assay for Gli-SUFU antagonist project, Wnt-LIGHT cells, luminescence (AID 651570).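 Also: Wnt-LIGHT reporter cells stimulated with conditioned medium from Wnt3a-producing cells.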 The class given is functional. As to conditions: read-out: IC50_Mean.
The target in another experiment is Melanocortin receptor 4 (Homo sapiens, UniProt P32245). The class given is functional, cell-based.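 Also: Cell-based assay with luminescence read-out, confirmatory dose-response testing for agonist activity of biased ligands at MC4R; human U2OS cells with tagged receptor and beta-arrestin; potency of agonists that increase receptor coupling to beta-arrestin.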
Melanocortin receptor 4, sequence (P32245 whole entry): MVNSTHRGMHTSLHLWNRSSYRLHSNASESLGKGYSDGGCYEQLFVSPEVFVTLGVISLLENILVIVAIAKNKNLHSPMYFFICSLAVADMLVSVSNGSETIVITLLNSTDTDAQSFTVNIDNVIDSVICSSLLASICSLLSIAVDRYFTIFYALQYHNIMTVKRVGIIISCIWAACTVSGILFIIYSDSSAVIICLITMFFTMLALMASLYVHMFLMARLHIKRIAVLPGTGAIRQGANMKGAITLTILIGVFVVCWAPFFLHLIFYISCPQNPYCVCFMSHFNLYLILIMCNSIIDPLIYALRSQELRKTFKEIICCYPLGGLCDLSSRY
In experiment [14] the target is T4, Sentrin-specific protease 1 (Homo sapiens, UniProt Q9P0U3).
T4 sequence (Q9P0U3 whole entry): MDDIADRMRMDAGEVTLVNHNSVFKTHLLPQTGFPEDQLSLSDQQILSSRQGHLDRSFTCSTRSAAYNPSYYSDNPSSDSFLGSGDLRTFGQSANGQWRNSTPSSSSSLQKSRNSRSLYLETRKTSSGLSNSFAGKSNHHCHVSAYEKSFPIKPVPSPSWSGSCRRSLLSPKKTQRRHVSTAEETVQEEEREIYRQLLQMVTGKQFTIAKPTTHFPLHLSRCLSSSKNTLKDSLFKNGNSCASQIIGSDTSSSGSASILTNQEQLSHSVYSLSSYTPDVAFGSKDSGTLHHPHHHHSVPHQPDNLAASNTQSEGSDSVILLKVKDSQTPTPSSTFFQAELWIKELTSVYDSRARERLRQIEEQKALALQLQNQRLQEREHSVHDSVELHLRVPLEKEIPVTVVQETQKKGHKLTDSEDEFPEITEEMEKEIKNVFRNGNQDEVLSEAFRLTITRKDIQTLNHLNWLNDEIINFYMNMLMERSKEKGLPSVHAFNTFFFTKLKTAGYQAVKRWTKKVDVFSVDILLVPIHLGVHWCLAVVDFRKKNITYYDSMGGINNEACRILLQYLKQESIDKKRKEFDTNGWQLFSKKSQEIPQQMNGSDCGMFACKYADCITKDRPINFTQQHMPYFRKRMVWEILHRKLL
Briefly: potency of human SENP1 inhibitors, dose response, biochemical, kinetic FRET (AID 651697). As to conditions: read-out: IC50_Mean. The class given is functional.

In experiment [15] the target is T4, Sentrin-specific protease 1. Briefly: Dose response confirmation of small molecule inhibitors of the catalytic domain of the SUMO protease, SENP1 in a FRET assay. The class given is functional. The following applies: read-out: IC50_Mean.
For experiment [16], the target named is Melanin-concentrating hormone receptor 1 (Homo sapiens, UniProt Q99705). Briefly: Late-stage fluorescence-based counterscreen for antagonists of the G-protein coupled receptor 7 (GPR7): cell-based dose response assay to identify antagonists of the melanin-concentrating hormone receptor 1 (MCHR1) Set 6. The format is functional.
Melanin-concentrating hormone receptor 1, sequence (Q99705 whole entry): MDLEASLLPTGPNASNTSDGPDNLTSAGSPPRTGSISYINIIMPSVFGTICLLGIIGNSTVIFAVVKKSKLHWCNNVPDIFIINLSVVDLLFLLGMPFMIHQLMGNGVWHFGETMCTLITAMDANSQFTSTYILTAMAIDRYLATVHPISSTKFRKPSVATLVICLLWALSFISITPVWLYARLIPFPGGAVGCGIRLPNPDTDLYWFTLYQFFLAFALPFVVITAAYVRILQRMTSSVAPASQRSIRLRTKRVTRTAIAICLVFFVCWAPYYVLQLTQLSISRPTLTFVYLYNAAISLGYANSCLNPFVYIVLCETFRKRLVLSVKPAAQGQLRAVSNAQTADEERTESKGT
Experiment [17] deals with T5, Neuropeptides B/W receptor type 1 (Homo sapiens, UniProt P48145).
T5 sequence (P48145 whole entry): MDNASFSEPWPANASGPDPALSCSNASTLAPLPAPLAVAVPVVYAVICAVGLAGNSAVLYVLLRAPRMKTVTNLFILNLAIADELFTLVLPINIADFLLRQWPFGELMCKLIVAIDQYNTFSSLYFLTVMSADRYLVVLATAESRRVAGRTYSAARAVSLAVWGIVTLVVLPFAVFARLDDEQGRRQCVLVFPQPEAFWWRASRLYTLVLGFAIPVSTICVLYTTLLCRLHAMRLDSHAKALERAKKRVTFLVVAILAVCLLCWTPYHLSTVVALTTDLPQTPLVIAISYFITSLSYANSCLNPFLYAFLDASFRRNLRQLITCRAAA
Briefly: GPR7 antagonist potency, late-stage follow-up, cell-based, fluorescence, dose response, set 6 (AID 588583). The format is functional.

Experiment [18] can be described thus: ARNT/TACC3 interaction disruptors, potency, confirmation, biochemical, AlphaScreen, cherry-picked samples (AID 651703).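 Also: His-tagged ARNT PAS-B domain paired with GST-TACC3 E629A dimer coactivator fragment; potency of inhibitors that break up the complex and lower AlphaScreen signal.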 The format is functional, Homo sapiens.
The target of experiment [19] is Ras and Rab interactor 1/Tyrosine-protein kinase ABL1 (Homo sapiens, UniProt P00519+Q13671). The class given is functional.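 Also: biochemical TR-FRET dose-response test measuring inhibition of binding between Rin1 and Abl proteins.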

The source made the active and inactive calls. Some results are limits rather than exact numbers.

Genome polyprotein, sequence (P29990 2492-3391 limits assumed): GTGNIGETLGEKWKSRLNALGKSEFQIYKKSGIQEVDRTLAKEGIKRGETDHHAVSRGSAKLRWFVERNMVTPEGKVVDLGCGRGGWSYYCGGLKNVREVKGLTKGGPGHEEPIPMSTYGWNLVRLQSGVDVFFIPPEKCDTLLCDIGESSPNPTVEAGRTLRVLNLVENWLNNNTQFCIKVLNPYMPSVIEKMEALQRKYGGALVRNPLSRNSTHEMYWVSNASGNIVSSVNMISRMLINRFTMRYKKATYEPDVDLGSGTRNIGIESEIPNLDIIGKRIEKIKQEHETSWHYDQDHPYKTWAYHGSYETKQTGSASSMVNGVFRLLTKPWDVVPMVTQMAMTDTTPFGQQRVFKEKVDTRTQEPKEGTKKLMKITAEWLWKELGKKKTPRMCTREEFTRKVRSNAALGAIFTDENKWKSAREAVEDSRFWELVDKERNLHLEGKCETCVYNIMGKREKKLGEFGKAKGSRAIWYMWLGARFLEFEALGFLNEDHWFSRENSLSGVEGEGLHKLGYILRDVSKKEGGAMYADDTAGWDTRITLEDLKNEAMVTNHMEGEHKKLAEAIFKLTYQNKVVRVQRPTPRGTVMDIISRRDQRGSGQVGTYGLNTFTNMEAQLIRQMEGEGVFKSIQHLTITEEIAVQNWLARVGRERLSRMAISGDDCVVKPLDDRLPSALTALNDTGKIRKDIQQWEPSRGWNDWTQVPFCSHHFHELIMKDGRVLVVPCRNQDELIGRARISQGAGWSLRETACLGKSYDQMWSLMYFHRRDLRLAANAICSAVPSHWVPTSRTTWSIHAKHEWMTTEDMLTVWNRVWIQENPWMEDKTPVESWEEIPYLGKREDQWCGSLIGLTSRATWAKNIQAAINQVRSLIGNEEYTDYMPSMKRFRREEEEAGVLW
Potassium voltage-gated channel subfamily KQT member 2, sequence (O88943 whole entry): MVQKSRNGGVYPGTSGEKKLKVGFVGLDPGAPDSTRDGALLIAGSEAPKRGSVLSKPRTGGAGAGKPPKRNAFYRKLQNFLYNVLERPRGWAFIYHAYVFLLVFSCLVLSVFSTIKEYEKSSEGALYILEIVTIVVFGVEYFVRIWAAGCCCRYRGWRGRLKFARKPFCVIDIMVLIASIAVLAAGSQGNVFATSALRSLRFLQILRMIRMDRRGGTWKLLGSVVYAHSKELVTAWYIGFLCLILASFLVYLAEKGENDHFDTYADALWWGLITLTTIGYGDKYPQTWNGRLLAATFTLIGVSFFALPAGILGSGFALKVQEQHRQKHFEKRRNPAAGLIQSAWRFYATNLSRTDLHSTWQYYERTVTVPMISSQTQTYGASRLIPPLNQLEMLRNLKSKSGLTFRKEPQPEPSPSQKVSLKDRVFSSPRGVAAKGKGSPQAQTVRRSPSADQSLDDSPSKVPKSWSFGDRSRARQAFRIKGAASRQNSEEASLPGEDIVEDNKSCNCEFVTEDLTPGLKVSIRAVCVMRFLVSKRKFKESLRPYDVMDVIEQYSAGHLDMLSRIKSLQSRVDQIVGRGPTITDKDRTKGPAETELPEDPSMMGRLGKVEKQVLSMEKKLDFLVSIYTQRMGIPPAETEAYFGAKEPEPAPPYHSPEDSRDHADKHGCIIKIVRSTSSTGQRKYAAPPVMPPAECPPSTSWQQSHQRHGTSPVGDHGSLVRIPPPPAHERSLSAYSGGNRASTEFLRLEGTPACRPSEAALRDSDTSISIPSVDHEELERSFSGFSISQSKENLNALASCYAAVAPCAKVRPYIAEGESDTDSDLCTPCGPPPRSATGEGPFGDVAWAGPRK
Protein Wnt-3a, sequence (P27467 whole entry): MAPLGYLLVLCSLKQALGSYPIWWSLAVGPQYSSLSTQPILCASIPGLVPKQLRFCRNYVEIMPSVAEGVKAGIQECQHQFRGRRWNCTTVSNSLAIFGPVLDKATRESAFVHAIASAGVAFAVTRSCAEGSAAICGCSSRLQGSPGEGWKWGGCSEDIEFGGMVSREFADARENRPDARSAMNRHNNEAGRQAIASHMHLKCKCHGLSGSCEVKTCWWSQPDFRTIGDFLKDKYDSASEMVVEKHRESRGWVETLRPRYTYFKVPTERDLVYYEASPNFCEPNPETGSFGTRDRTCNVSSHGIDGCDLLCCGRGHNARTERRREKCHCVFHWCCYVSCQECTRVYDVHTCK

Regarding `COCCNC(C(=O)Nc1cc(Cl)cc(Cl)c1)c1ccccc1` (stereo not given), the IC50 in [1] was 16.1 µM (active).
In the case of `Cn1c(C(=O)NCCN2CCCCCC2)cc2c(=O)n(C)c3ccccc3c21`, the AC50 in [2] was 25.3 µM (active).
Take `Cc1cc(/C=C2\C(=O)NC(=O)N(c3ccccc3F)C2=O)c(C)n1-c1cc(C(=O)O)cc(C(=O)O)c1`: the EC50 in [3] and in [4] was > 300 µM (not active) each time. Besides, the results for the IC50 (on Genome polyprotein; in experiment [5]; in [6]) were 63.6 µM (active), 1.55 µM (active) and 10.7 µM (active), respectively. Also, in experiment [7], the AC50 was > 20 µM (inactive).
Regarding `CCc1ccc(/C=C2/C(=O)N(C)C(=S)N2CC(=O)OC)s1`, the EC50 was 16.6 µM (active) in [8], > 120 µM (not active) in experiment [9] and > 120 µM (not active) in the experiment on H4. Further, the CC50 in experiment [10] is > 100 µM (active).
Consider `CCCCN(C(C)=O)c1ccc2c(c1)C1CC2CCN1C(=O)OCc1ccccc1` (stereo not given), for which the results for the AC50 in experiment [11], in [12] and in experiment [13] were 1.37 µM (active), 66.9 µM (active) and 4.4 µM (active), respectively. Besides, the IC50 on Protein Wnt-3a was 3.72 µM (active).
As for `CC(=O)c1cccc(-c2cnc3c(NC=O)cc(-c4ccc(N(C)C)cc4)cn23)c1`, on Melanocortin receptor 4, the EC50 is > 89.2 µM (inactive). Moreover, the IC50 in experiment [14] is 9.66 µM (active); in experiment [15], 11.2 µM (active).
On to `N#CC(c1nc2ccccc2s1)c1c(Cl)cnn(Cc2cccc3ccccc23)c1=O` (stereo not given), for which the IC50 in experiment [16] and in experiment [17] was 0.186 µM (active) in each case.
For the compound `N#CC(c1ccc(F)c(F)c1)c1c(Cl)cnn(Cc2cccc3ccccc23)c1=O` (stereo not given), the IC50 in [16] and in experiment [17] was 0.186 µM (active) throughout.
Consider `N#C[C@@H]1[C@@H](c2ccc(-c3ccc(F)cc3)cc2)[C@H](CO)N1c1nc(-c2ccccc2)cs1`, for which, in [18], the AC50 is 84.2 µM (active).
As for `Oc1ncnc2c1C(c1ccccc1)c1c(O)ncnc1O2`, the IC50 in [19] is 32 µM (inactive).

As a reminder, the AC50 is the midpoint of the concentration-response curve, whichever way the signal moves. For orientation: EC50 means the concentration at which the effect is half-maximal. In general, CC50 refers to the concentration giving 50% cytotoxicity.
